Measured values reported in patent US20260034091A1, “Compositions and Methods for Treating Metabolic Disorders” (The Regents of the University of California, priority 2022, published 2026).

How the values were obtained:
[1] = tested on: CDAHFD induced late stage NAFLD/NASH in mice; assay: Rescue effect of TOFA in CDAHFD induced late-stage NAFLD/NASH progression; format: in vivo, C57BL/6 male mice; settings: 250 mg/kg daily, four weeks
Experimental: Six-week-old C57BL/6 male mice were fed with a L-Amino Acid Diet With 60 kcal % Fat With 0.1% Methionine and No Added Choline (Research Diets A06071302i) for eight weeks before introduction of either vehicle (control) or 250 mg/kg of TOFA daily via twice daily controlled oral gavage for an additional four weeks (FIG. 3A). Upon study termination at 12 weeks, serum and liver samples were collected. Serum liver damage biomarkers, ALT and AST, were measured by commercially available kits (abcam105134 and abcam 105135, respectively). Hepatic and serum triglyceride levels were measured from a commercially available kit (abcam65336). Liver samples were fixed in 4% paraformaldehyde and embedded in paraffin blocks for sectioning and subsequently stained with hematoxylin and eosin (H&E) or Picrosirius Red with a fast green dye background. Frozen fresh liver tissue was embedded in OCT, sectioned, and subsequently stained with Oil Red O.

[2] = tested on: CDAHFD diet-induced NAFLD/NASH in wild-type mice; assay: TOFA in wild-type mice on CDAHFD (comparison to PPARA KO); format: in vivo, C57BL/6J (WT) mice
Experimental: Six-week-old genetic PPARA knockout (PPARA KO) male mice were fed with a L-amino acid diet with 60 kcal % fat with 0.1% methionine and no added choline (CDAHFD; Research Diets A06071302i) for three weeks or fed with a 60 kcal % fat diet (DIO; Research Diets A12492i) for eight weeks before introduction of either vehicle (control) or 125 mg/kg of TOFA, BID, via oral gavage for an additional two weeks (FIG. 11A and FIG. 11J, respectively). C57BL/6J (WT) mice were fed with the CDAHFD and underwent similar experimental conditions and time course. Mice weights and adverse events were monitored during the treatment time course. Upon study termination, serum and liver samples were collected. Serum liver damage biomarkers, ALT and AST, were measured by commercially available kits (abcam105134 and abcam 105135, respectively). Hepatic and serum triglyceride levels were measured from a commercially available kit (abcam65336). […] Quantitative PCR (qPCR) was performed with fast SYBR Green Mix (ThermoFisher A25742) on the QuantStudio6 System (Applied Biosciences). Protein expression levels of liver samples were measured by western blot using antibodies against ACC1/2 (CST3662, 1:1000), VLDLR (AF2258, 1:2000), CPT1A (CST12252, 1:1000), PPARA (abcam126285, 1:1000) and beta-tubulin (CST2146, 1:1000). […]

[3] = tested on: CDAHFD mouse model of diet-induced NAFLD/NASH; assay: TOFA and Semaglutide single agent and combination in CDAHFD mouse model of NAFLD/NASH; format: in vivo, C57BL/6J male mice
Experimental: Six-week-old C57BL/6J male mice were fed with a L-amino acid diet with 60 kcal % fat with 0.1% methionine and no added choline (CDAHFD; Research Diets A06071302i) for eight weeks. Mice were randomly assigned to treatment groups of either a vehicle (control), 250 mg/kg of TOFA, 5 nmol/kg of Semaglutide (Novo Nordisk), or a combined dose of 250 mg/kg TOFA plus 5 nmol/kg Semaglutide. TOFA was administered by oral gavage. Semaglutide dosing was up-titrated at beginning of treatment regimen and was delivered via subcutaneous injection at the back shoulder/neck flank. All treatments were delivered QD for an additional four weeks. Mice weights and food intake were monitored during the treatment time course. Upon study termination at 12 weeks, liver and serum samples were collected. Serum liver damage biomarkers, ALT and AST, were measured by commercially available kits (abcam105134 and Cayman 701640, respectively). Hepatic and serum triglyceride levels were measured using a commercially available kit (abcam65336). Total RNA was extracted from liver tissues (Qiagen RNeasy kit 74106), and cDNA was prepared (BioRAD iScript™ Reverse Transcription) according to manufacturer's protocols. Quantitative PCR (qPCR) was performed with fast SYBR Green Mix (ThermoFisher A25742) on the QuantStudio6 System (Applied Biosciences). Additional liver samples were fixed in 4% paraformaldehyde and embedded in paraffin blocks for sectioning and subsequently stained with hematoxylin and eosin (H&E) or Sirius Red with a fast green dye background.

PPAR signaling pathway = assay: Transcriptional analysis of liver samples from 60% HFD mouse model of diet induced obesity; format: in vivo, C57BL/6J male mice
Experimental: Six-week old C57BL/6J male mice were fed with a 60 kcal % fat diet (Research Diets A12492i) for seven weeks before introduction of either control or 125 mg/kg, BID, initial loading dose of TOFA daily via controlled oral gavage for one week (FIG. 2A). Mice were then treated with either vehicle (control) or 62.5 mg/kg, BID, maintenance dose of TOFA daily via oral gavage for three additional weeks. Upon study termination at 11 weeks, liver samples were collected. Total RNA was extracted from liver tissues (Qiagen RNeasy kit 74106), cDNA libraries were constructed (Roche KAPA HyperPrep kit), sequenced on the NovaSeq6000 platform (Novogene), and a downstream analysis pipeline was performed. Differentially expressed genes (DEGs) were defined by at least one log2-fold change (2-fold in linear scale) with an FDR cutoff of 0.05. For validation, total RNA was used to prepare CDNA (BioRAD iScript™ Reverse Transcription) according to manufacturer's protocol and qPCR was performed with fast SYBR Green Mix (ThermoFisher A25742) on the QuantStudio6 System (Applied Biosystems).

[4] = scored per Kleiner, et al. (2005)
[5] = four weeks, TOFA 250 mg/kg oral QD, Semaglutide 5 nmol/kg s.c. QD
[6] = 125 mg/kg BID 1 week then 62.5 mg/kg BID 3 weeks, oral gavage

## CCCCCCCCCCCCCCOc1ccc(C(=O)O)o1 [TOFA, 5-(Tetradecyloxy)-2-furoic acid]
[1]; liver sections
  cytoplasmic vacuolations by H&E staining: decreased cytoplasmic vacuolations
  fibrosis by Picrosirius Red staining: decreased fibrosis
  lipid content by Oil Red O staining: reduction in lipid content
[1]; [4]
  ballooning (histopathological score): reductions
  degree of hepatic steatosis (histopathological score): decreased degree of hepatic steatosis
  fibrosis (histopathological score): reductions
  inflammation (histopathological score): reductions
[1]; twice daily oral gavage
  liver triglyceride content: reduced
  serum ALT activity levels: significant decrease
  serum AST levels: averaged reduction
  serum triglyceride levels: no increase
[2]; 125 mg/kg BID, two weeks
  Cpt1a mRNA (RT-qPCR): induction of Cpt1a mRNA
[2]; relative to vehicle control
  protein expression levels of CPT1A, VLDLR, and ACC1 (western blot): increased
[3]; four weeks treatment
  food intake: not due to changes in food intake
[3]; [5]
  body weight at the end of the treatment time course: smaller degree of weight loss compared to Semaglutide treated mice
  inflammation genes (RT-qPCR of liver samples): specific response of TOFA in addressing inflammation
  mRNA levels of genes involved in collagen biosynthesis (RT-qPCR): strong repressive effectives
  serum ALT levels: moderate reductions
  serum AST levels: only group to have demonstrated reduction
[3]; four weeks, liver sections
  fibrotic content (Sirius red staining): aforementioned histological trends are noted
[3]; four weeks, relative to control
  steatosis (H&E liver sections): greater reduction in steatosis
[3]; four weeks, relative to vehicle control
  liver triglyceride levels: stronger, significant reduction
PPAR signaling pathway; [6]
  genes in the PPAR signaling pathway (BioPlanet 2019 database): upregulated various genes under PPAR transcriptional control
  highest upregulated genes (RNAseq of liver): canonical PPAR-alpha target genes
  transcriptional regulatory relationship analysis of upregulated genes (TRRUST Transcription Factors 2019): PPARA is one of the major acting factors in transcriptional regulation
PPAR signaling pathway; liver mRNA relative to r18s mRNA
  downstream PPAR target genes by RT-qPCR (fatty acid beta-oxidation, acyl-CoA processing, lipoprotein uptake and metabolism): upregulated
